Measurements as given in patent US8597904B2, “Pharmaceutical compositions for the treatment of conditions responsive to proteasome inhibition” (priority 2007, dated 2013).
Like-named read-outs stand apart in the source and are kept apart here.

Legend:
SKOV3 cells [1] = conditions: values from previous studies with SylA (Coleman et al. 2006); cited from earlier work
Papaya latex papain = target: T1, Papaya latex papain (Carica papaya, UniProt P00784); assay: SensoLyte Green Protease Fluorometric Assay, papain inhibition; assay type: biochemical; conditions: syringolin A up to 500 μM
T1 construct: Papaya latex papain (Sigma-Aldrich); purchased Sigma-Aldrich; host or cells: papaya latex
T1 sequence (P00784 134-345): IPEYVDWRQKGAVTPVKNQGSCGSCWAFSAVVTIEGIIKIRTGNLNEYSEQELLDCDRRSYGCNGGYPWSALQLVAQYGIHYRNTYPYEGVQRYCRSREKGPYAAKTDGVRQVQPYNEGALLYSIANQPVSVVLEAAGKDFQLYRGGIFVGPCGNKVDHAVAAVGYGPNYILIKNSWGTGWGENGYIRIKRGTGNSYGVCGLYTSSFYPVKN
Protocol: (§1) To test the specificity of syringolin A inhibition of proteasome activities, bovine pancreas trypsin (Pierce) and Papaya latex papain (Sigma-Aldrich) inhibition assays with syringolin A were performed with the SensoLyte™ Green Protease Fluorometric Assay Kit (AnaSpec., San Jose, Calif., USA) according to the instructions of the manufacturer. Reaction volumes of 100 μl contained an enzyme concentration of 200 ng/ml and various amounts of test inhibitors. Protease activity was monitored at 33° C. in a FluoroCount Microplate Fluorometer (FluoroCount, Packard, Canberra, Australia) using 485 nm excitation and a 550 nm emission filters.

SK-N-SH cells [2] = conditions: neuroblastoma (NB) cells, Coleman et al. 2006; cited from earlier work
[3] = system: β-actin, procaspase-3 and protein kinase Akt/PKB; assay: Western blot of β-actin, procaspase-3 and Akt/PKB in syringolin A-treated cells; assay type: cell-based, human; conditions: 20 μM, 48 hours
[4] = target: T2, proteasome activity in SK-N-SH neuroblastoma cells (Homo sapiens, UniProt P28074); conditions: read-out: IC50 of proteasomal activity, previously determined, Groll et al. 2008; cited from earlier work
T2 construct: endogenous in cells; host or cells: SK-N-SH
T2 sequence (P28074 60-263): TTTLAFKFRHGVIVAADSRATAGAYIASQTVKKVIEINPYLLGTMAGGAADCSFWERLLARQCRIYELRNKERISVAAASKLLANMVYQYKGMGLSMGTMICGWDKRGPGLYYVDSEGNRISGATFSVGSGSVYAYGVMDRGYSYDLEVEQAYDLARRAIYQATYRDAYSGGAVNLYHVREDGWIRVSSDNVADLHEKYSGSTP

SK-N-SH cells [5] = assay: annexin V assay by flow cytometry; assay type: cell-based, human; conditions: 25 μM, 48 hours
Protocol: SK-N-SH cells at a concentration of 1.0×10^5 cells per ml were seeded in 12-well plates containing 1 ml of culture medium per well. After 24 hours, 10 μl of syringolin A (25 μM final concentration) or an equal volume of sterile water (control) was added per well. Cells were incubated for 48 hours, trypsinized, washed twice in phosphate-buffered saline (PBS) and were counted; 1-2×10^5 cells suspended in 0.1 ml of 1× assay buffer per vial according to the manufacturer's instructions (BD Biosciences, Palo Alto, Calif.). Cells were stained with annexin V-FITC (5 μl) for 15 minutes in the dark, at room temperature. Assay buffer (0.4 ml) was added, and 5000 cells were analyzed using a FACScan flow cytometer (Becton Dickinson, San Jose, Calif.). The […] program was used for data analysis.

SK-N-SH cells [6] = conditions: values from previous studies with SylA (Coleman et al. 2006); cited from earlier work
bovine pancreas trypsin = target: T3, bovine pancreas trypsin (Bos taurus, UniProt P00760); assay: SensoLyte Green Protease Fluorometric Assay, trypsin inhibition; assay type: biochemical; conditions: syringolin A up to 500 μM
T3 construct: bovine pancreas trypsin (Pierce); purchased Pierce; host or cells: bovine pancreas
T3 sequence (P00760 24-246): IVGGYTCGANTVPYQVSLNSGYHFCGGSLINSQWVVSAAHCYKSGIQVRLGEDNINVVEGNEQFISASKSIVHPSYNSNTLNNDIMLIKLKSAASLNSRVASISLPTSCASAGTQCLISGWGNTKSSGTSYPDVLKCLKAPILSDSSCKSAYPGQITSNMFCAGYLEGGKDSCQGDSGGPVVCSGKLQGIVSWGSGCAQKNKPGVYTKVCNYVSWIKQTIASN
Protocol: as §1

SK-N-SH cells [7] = assay: microscopy of treated SK-N-SH cells for membrane blebbing; assay type: cell-based, human
SKOV3 cells [8] = assay: CellTiter 96 Aqueous One (MTS) cell proliferation assay; assay type: cell-based, human
Protocol: (§2) The CellTiter 96 Aqueous One solution Cell Proliferation Assay (2-(4,5-dimethylthiazol-2-yl)-5-(3-carboxymethoxyphenyl)-2-(4-sulfophenyl)-2H-tetrazolium, inner salt; MTS) (Promega, San Luis Obispo, Calif.) was used to determine the viability of cells treated with GlbA and SylA. Briefly, SK-N-SH and SKOV3 cells were seeded in clear, 96 well plates, as described (Example 11), and cultured for 18-24 hours. Ten μl GlbA or SylA were added at different concentrations (0-100 μM) and incubated for 48 hours. After the experiment, 20 uL of tetrazolium CellTiter 96 Aqueous One Solution Reagent was added to wells, incubated for 75-150 min. at 37° C. The absorbance was measured at 490 nm using a Perkin Elmer HTS7000 Plus bioassay reader.

SK-N-SH cells [9] = assay: as above; assay type: cell-based, human
Protocol: as §2

Row | Compound | EC50 (SKOV3 cells [1]) [µM] | papain activity (Papaya latex papain) | reaction with Annexin V (SK-N-SH cells [2]) | levels of β-actin, procaspase-3 and protein kinase Akt/PKB [3] | IC50 [4] [nM] | annexin V binding (SK-N-SH cells [5]) | EC50 (SK-N-SH cells [6]) [µM] | trypsin activity (bovine pancreas trypsin) | membrane blebbing / apoptotic effects by microscopy (SK-N-SH cells [7]) | EC50 (SKOV3 cells [8]; Homo sapiens, SK-OV-3, 48 hours, MTS) [µM] | cell morphology (SKOV3 cells [8]; SKOV3, 48 hours) | effectiveness of GlbA relative to SylA (SKOV3 cells [8]; SKOV3, ratio of EC50) [fold] | cell morphology (SK-N-SH cells [9]; 48 hours) | EC50 (SK-N-SH cells [9]; Homo sapiens, 48 hours, MTS) [µM] | effectiveness of GlbA relative to SylA (SK-N-SH cells [9]; ratio of EC50)
1 | CC(C)[C@H](NC(=O)N[C@H](C(=O)N[C@H]1/C=C/CCNC(=O)/C=C/[C@H](C(C)C)NC1=O)C(C)C)C(=O)O [syringolin A] | ~20 | not affected | strongly react with Annexin V | decreased | 1430 | strongly bound annexin V | ~20 | not affected |  |  |  |  |  |  | 
2 | CCCCCCC/C=C/C=C/C(=O)N[C@H](C(=O)N[C@H]1C[C@@H](O)CCNC(=O)/C=C/[C@H](C)NC1=O)[C@@H](C)O [glidobactin A] |  |  |  |  |  |  |  |  | presence of membrane blebbing | ~0.8 | severe morphological changes | ~25 | severe morphological changes | ~0.14 | about 143 fold
